The experiment has as its system C170HM2 human colorectal tumor cells. In words: C170HM2 colon cancer metastasis to the liver model. The format is in vivo, MF1 nude (nu/nu) athymic mice. As to conditions: 25 mg/kg i.v. cycled on days 1, 3, 5, 7. As for the experimental part: Liver metastasis was initiated by intraperitoneal injection of C170HM2 human colorectal tumor cells into male MF1 nude (nu/nu) athymic mice. 5FU/leucovorin was used as a positive control.
C170HM2 cells were maintained in vitro in RPMI culture medium (Sigma) containing 10% (v/v) heat inactivated fetal bovine serum and 2 mM L-glutamine at 37° C. in 5% CO2 and humidified conditions. Cells from sub-confluent monolayers were harvested with 0.025% EDTA, washed in culture medium and re-suspended in sterile phosphate buffered saline, pH 7.4 (PBS) for in vivo administration. 1.5×10^6 cells in a volume of 1 ml were injected intraperitoneally into 65 mice, and the mice were allocated into treatment groups as below.
Group 1: n=10 Vehicle control Group 2: n=10 25 mg/kg 5FU/leucovorin i.v. cycled on days 1, 3, 5, 7 Group 3: n=10 5 mg/kg compound 1 (Dalteparin) s.c. once daily Group 4: n=10 5 mg/kg compound 2 (M402) s.c. once daily Group 5: n=10 15 mg/kg compound 2 s.c. once daily Group 6: n=10 30 mg/kg compound 2 s.c. once daily Group 7: n=5 Untreated
Treatment was initiated on day 1 following cell injection and continued until day 35 or until the clinical condition of the animal required termination. Groups 5 and 6 missed one dose on day 5. […]
The study was terminated on day 35, and the tumors in the liver were excised and weighed. The numbers of lung nodules are also counted.

Substance 5FU/leucovorin displayed a Mean tumor area (day 35) of 13.12 mm^2. For the setting “liver tumors day 35”, this substance returned a Mean tumor weight of 0.037 g.

Values taken from patent publication US20120183976A1, “METHODS OF ASSESSING ACTIVITY OF A POLYSACCHARIDE COMPOSITION” (priority 2009, published 2012).
